Reference: ChEMBL document CHEMBL6083204, “Synthesis of a celastrol derivative as a cancer stem cell inhibitor through regulation of the STAT3 pathway for treatment of ovarian cancer” (RSC Med Chem, 2024)
Calls of active or inactive are those of the source. No cut-off for these calls is given here.

Tests used:
SK-OV-3 [1] = test: Induction of cell cycle arrest in human SK-OV-3 cells assessed as reduction of Cyclin D1 expression at 0.8 uM incubated for 24 hrs by flow cytometry (reference value: 93.8 %); assay type: functional; design: scale not given: the % may be the effect or the level left
SK-OV-3 [2] = test: Induction of cell cycle arrest in human SK-OV-3 cells assessed as reduction of CDK2 expression at 0.8 uM incubated for 24 hrs by flow cytometry (reference value: 94.4 %); assay type: functional; design: scale not given: the % may be the effect or the level left
A2780 [3] = test: Antiproliferative activity against human A2780 cells assessed as decrease in CD44 positive CD24 negative cells expression at 0.4 uM incubated for 24 hrs by FITC staining based flow cytometry (reference value: 28.13 %); assay type: functional; design: scale not given: the % may be the effect or the level left
[4] = biological target: Signal transducer and activator of transcription 3 (Homo sapiens) (UniProt P40763); test: Inhibition of STAT3 in human SK-OV-3 cells assessed as downregulation of cytoplasmic STAT3 expression at 0.2 uM incubated for 24 hrs by Hoechst33342 staining based immunofluorescence assay; assay type: cell-based
A2780 [5] = test: Induction of apoptosis in human A2780 cells assessed as viable cells at 0.2 uM incubated for 24 hrs by Annexin V-FITC/7-AAD staining based flow cytometry (reference value: 95 %); assay type: functional; conditions: read-out: Activity
SK-OV-3 [6] = test: Induction of apoptosis in human SK-OV-3 cells assessed as late apoptotic cells at 0.2 uM incubated for 24 hrs by Annexin V-FITC/7-AAD staining based flow cytometry (reference value: 3.7 %); assay type: functional
[7] = Selectivity index, ratio of IC50 for cytotoxicity against human IOSE80 cells to IC50 for cytotoxicity against human SK-OV-3 cells
A2780 [8] = test: Induction of cell cycle arrest in human A2780 cells assessed as reduction of CDK2 expression at 0.8 uM incubated for 24 hrs by flow cytometry (reference value: 92.5 %); assay type: functional; design: scale not given: the % may be the effect or the level left
SK-OV-3 [9] = test: Inhibition of cell migration in human SK-OV-3 cells assessed as downregulation of phosphorylated FAK expression at 0.1 to 0.4 uM incubated for 24 hrs by Western blotting analysis; assay type: functional, cell-based; conditions: dose 0.1-0.4 µM
A2780 [10] = test: Induction of apoptosis in human A2780 cells assessed as viable cells at 0.8 uM incubated for 24 hrs by Annexin V-FITC/7-AAD staining based flow cytometry (reference value: 95 %); assay type: functional; conditions: read-out: Activity
A2780 [11] = test: Induction of cell cycle arrest in human A2780 cells assessed as reduction of Cyclin D1 expression at 0.4 uM incubated for 24 hrs by flow cytometry (reference value: 92.5 %); assay type: functional; design: scale not given: the % may be the effect or the level left
SK-OV-3 [12] = test: Induction of cell cycle arrest in human SK-OV-3 cells assessed as accumulation of cells at G2/M phase at 0.2 uM incubated for 24 hrs by BrdU staining based flow cytometry (reference value: 6.3 %); assay type: functional
SK-OV-3 [13] = test: Induction of cell cycle arrest in human SK-OV-3 cells assessed as reduction of CDK4 expression at 0.8 uM incubated for 24 hrs by flow cytometry (reference value: 66.8 %); assay type: functional; design: scale not given: the % may be the effect or the level left
SK-OV-3 [14] = test: Induction of cell cycle arrest in human SK-OV-3 cells assessed as reduction of Cyclin D1 expression at 0.4 uM incubated for 24 hrs by flow cytometry (reference value: 93.8 %); assay type: functional; design: scale not given: the % may be the effect or the level left
A2780 [15] = test: Induction of cell cycle arrest in human A2780 cells assessed as accumulation of cells at G2/M phase at 0.2 uM incubated for 24 hrs by BrdU staining based flow cytometry (reference value: 6.2 %); assay type: functional
SK-OV-3 [16] = test: Induction of ROS production in human SK-OV-3 cells assessed as increase in fluorescence intensity incubated for 24 hrs by DCFH-DA staining based flow cytometry; assay type: functional, cell-based
SK-OV-3 [17] = test: Induction of apoptosis in human SK-OV-3 cells assessed as late apoptotic cells at 0.4 uM incubated for 24 hrs by Annexin V-FITC/7-AAD staining based flow cytometry (reference value: 3.7 %); assay type: functional
[18] = Toxicity in BALB/c mouse xenografted with human SK-OV-3 cells assessed as pathological change in lung at 2 to 5 mg/kg,ip administrated for 21 consecutive days by hematoxylin and eosin staining based assay; assay type: organism-based; conditions: in vivo, dose 2-5 mg/kg
A2780 [19] = test: Induction of apoptosis in human A2780 cells assessed as increase in caspase-8 activity at 0.8 uM incubated for 24 hrs by flow cytometry (reference value: 1.2 %); assay type: functional
SK-OV-3 [20] = test: Induction of apoptosis in human SK-OV-3 cells assessed as increase in caspase-8 activity at 0.2 uM incubated for 24 hrs by flow cytometry (reference value: 2.5 %); assay type: functional
SK-OV-3 [21] = test: Induction of cell cycle arrest in human SK-OV-3 cells assessed as reduction of CDK2 expression at 0.4 uM incubated for 24 hrs by flow cytometry (reference value: 94.4 %); assay type: functional; design: scale not given: the % may be the effect or the level left
[22] = biological target: Signal transducer and activator of transcription 3 (Homo sapiens) (UniProt P40763); test: Inhibition of STAT3 in human A2780 cells assessed as downregulation of STAT3 expression in nuclei at 0.2 uM incubated for 24 hrs by Hoechst33342 staining based immunofluorescence assay; assay type: cell-based
A2780 [23] = test: Induction of apoptosis in human A2780 cells assessed as viable cells at 0.4 uM incubated for 24 hrs by Annexin V-FITC/7-AAD staining based flow cytometry (reference value: 95 %); assay type: functional; conditions: read-out: Activity
A2780 [24] = test: Induction of cell cycle arrest in human A2780 cells assessed as reduction of CDK4 expression at 0.8 uM incubated for 24 hrs by flow cytometry (reference value: 93.6 %); assay type: functional; design: scale not given: the % may be the effect or the level left
[25] = biological target: Tyrosine-protein kinase JAK1 (Homo sapiens) (UniProt P23458); test: Inhibition of JAK1 in human SK-OV-3 cells assessed as downregulation of JAK1 phosphorylation at 0.1 to 0.4 uM incubated for 24 hrs by Western blotting analysis; assay type: cell-based; conditions: dose 0.1-0.4 µM
[26] = biological target: Signal transducer and activator of transcription 3 (Homo sapiens) (UniProt P40763); test: Inhibition of STAT3 in human SK-OV-3 cells assessed as downregulation of cytoplasmic STAT3 phosphorylation at Tyr705 residue at 0.2 uM incubated for 24 hrs by Hoechst33342 staining based immunofluorescence assay; assay type: cell-based
[27] = biological target: Signal transducer and activator of transcription 3 (Homo sapiens) (UniProt P40763); test: Inhibition of STAT3 in human SK-OV-3 cells assessed as downregulation of STAT3 phosphorylation at Tyr705 residue incubated for 24 hrs by Western blotting analysis; assay type: cell-based
SK-OV-3 [28] = test: Induction of cell cycle arrest in human SK-OV-3 cells assessed as reduction of CDK2 expression at 0.2 uM incubated for 24 hrs by flow cytometry (reference value: 94.4 %); assay type: functional; design: scale not given: the % may be the effect or the level left
A2780 [29] = test: Induction of cell cycle arrest in human A2780 cells assessed as reduction of CDK4 expression at 0.4 uM incubated for 24 hrs by flow cytometry (reference value: 93.6 %); assay type: functional; design: scale not given: the % may be the effect or the level left
[30] = biological target: Signal transducer and activator of transcription 3 (Homo sapiens) (UniProt P40763); test: Inhibition of STAT3 in human SK-OV-3 cells assessed as downregulation of cytoplasmic STAT3 phosphorylation at Ser727 residue at 0.2 uM incubated for 24 hrs by Hoechst33342 staining based immunofluorescence assay; assay type: cell-based
A2780 [31] = test: Inhibition of human A2780 cells spheroid formation assessed as reduction in spheroid number at 0.1 to 0.4 uM incubated for 10 days by inverted microscopic analysis; assay type: functional, cell-based; conditions: dose 0.1-0.4 µM, time 10.0 day
A2780 [32] = test: Induction of cell cycle arrest in human A2780 cells assessed as reduction of Cyclin D1 expression at 0.8 uM incubated for 24 hrs by flow cytometry (reference value: 92.5 %); assay type: functional; design: scale not given: the % may be the effect or the level left

Chain of Signal transducer and activator of transcription 3 (Homo sapiens) (P40763 whole entry): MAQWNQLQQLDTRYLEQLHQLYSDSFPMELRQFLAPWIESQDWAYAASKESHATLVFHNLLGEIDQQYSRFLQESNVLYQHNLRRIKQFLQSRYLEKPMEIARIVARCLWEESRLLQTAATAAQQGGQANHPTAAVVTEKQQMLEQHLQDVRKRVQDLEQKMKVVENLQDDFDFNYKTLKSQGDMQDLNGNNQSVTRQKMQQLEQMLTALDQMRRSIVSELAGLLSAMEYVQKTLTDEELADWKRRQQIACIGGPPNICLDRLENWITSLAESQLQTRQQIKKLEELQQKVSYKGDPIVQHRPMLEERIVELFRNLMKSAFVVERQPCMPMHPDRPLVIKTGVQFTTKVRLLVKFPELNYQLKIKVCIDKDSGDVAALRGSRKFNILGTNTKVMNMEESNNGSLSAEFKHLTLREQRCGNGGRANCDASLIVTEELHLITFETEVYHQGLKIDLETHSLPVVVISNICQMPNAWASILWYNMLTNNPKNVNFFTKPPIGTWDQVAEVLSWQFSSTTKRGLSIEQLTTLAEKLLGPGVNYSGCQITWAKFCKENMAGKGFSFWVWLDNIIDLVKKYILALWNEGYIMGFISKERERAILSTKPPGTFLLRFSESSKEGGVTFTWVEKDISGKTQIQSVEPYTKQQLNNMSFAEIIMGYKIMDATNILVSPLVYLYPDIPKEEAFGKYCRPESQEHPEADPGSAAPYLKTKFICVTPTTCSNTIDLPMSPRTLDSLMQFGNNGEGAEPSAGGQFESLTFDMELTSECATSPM
Chain of Tyrosine-protein kinase JAK1 (Homo sapiens) (P23458 whole entry): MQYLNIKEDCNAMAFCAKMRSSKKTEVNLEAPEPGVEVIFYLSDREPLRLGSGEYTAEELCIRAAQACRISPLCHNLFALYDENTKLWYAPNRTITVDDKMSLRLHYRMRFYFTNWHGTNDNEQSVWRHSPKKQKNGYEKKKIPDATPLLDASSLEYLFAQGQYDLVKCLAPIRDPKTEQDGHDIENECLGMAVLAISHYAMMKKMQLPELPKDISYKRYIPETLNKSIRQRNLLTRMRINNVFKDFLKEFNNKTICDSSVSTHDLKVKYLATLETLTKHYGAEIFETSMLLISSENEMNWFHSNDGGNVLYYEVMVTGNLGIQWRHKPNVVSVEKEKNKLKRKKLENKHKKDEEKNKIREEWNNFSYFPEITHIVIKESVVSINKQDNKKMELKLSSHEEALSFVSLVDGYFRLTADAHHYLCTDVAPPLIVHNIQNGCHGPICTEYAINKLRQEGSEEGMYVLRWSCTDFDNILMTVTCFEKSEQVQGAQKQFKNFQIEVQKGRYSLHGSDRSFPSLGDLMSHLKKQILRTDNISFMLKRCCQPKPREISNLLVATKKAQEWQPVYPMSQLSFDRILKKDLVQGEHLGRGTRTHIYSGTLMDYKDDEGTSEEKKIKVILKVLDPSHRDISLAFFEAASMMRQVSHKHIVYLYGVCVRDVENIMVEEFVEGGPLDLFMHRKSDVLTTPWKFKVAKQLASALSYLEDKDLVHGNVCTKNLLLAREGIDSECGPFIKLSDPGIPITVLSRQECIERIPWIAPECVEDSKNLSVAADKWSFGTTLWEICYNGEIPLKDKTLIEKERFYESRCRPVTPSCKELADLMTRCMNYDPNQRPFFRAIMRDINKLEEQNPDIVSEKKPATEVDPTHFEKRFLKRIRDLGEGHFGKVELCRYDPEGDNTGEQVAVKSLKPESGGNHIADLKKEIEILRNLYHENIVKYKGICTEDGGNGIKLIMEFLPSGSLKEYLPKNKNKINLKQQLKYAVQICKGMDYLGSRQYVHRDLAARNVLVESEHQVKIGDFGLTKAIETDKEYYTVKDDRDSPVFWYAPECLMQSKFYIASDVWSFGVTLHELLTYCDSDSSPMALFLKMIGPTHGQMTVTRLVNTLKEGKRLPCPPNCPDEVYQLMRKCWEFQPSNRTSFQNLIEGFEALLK

## CC1=C(O)C(=O)C=C2C1=CC=C1[C@@]2(C)CC[C@@]2(C)[C@@H]3C[C@](C)(C(=O)N4CCNCC4)CC[C@]3(C)CC[C@]12C
SK-OV-3 [1]
  Activity: 53.1%
SK-OV-3 [2]
  Activity: 57.5%
A2780 [3]
  Activity: 2.93%
[4]
  inhibition: Active; Showed Mild Inhibition Activity
A2780 [5]
  viability at 0.2 µM: 89.3%
SK-OV-3 [6]
  Activity: 7.8%
[7]
  Ratio IC50: 4.81
A2780 [8]
  Activity: 8.6%
SK-OV-3 [9]
  inhibition: Active
A2780 [10]
  viability at 0.8 µM: 24.5%
A2780 [11]
  Activity: 67.7%
SK-OV-3 [12]
  Activity: 6.7%
SK-OV-3 [13]
  Activity: 29.8%
SK-OV-3 [14]
  Activity: 68.2%
A2780 [15]
  Activity: 4.8%
SK-OV-3 [16]
  Activity: Dose-dependent-effect
SK-OV-3 [17]
  Activity: 11.5%
[18]
  Activity: Non-toxic
A2780 [19]
  Activity: 12%
SK-OV-3 [20]
  Activity: 6.2%
SK-OV-3 [21]
  Activity: 80.7%
[22]
  inhibition: Active
A2780 [23]
  viability at 0.4 µM: 75.3%
A2780 [24]
  Activity: 18.7%
[25]
  inhibition: Active
[26]
  inhibition: Active; Showed Mild Inhibition Activity
[27]
  inhibition: Dose-dependent-effect
SK-OV-3 [28]
  Activity: 91.1%
A2780 [29]
  Activity: 17.2%
[30]
  inhibition: Active; Showed Mild Inhibition Activity
A2780 [31]
  inhibition: Active
A2780 [32]
  Activity: 15%
